These results are taken from patent US6479531B1, “Gastrin and cholecystokinin receptor ligands” (James Black Foundation Limited, priority 1998, dated 2002).

One test concerns the target T1, CCKB receptor (Mus musculus, UniProt P56481).
T1 construct: The whole brains from male mice (CD1 22-25 g; Charles River) were removed; from tissue; host or cells: cerebral cortex membranes of male CD1 mice
T1 sequence (P56481 1-453): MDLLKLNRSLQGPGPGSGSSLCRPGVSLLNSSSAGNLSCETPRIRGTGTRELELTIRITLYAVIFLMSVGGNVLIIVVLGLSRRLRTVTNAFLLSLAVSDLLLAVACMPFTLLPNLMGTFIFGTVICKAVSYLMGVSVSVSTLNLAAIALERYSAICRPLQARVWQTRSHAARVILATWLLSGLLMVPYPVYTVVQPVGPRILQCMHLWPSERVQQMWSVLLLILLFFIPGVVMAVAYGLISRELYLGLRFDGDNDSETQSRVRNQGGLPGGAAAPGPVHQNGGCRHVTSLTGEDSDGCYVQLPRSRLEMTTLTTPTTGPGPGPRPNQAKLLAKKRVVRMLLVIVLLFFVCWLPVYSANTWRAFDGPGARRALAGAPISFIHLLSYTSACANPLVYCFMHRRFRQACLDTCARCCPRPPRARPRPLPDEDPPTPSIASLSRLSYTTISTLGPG
Kind of test: CCKB receptor radioligand binding assay in mouse cortical membranes. As to conditions: [125I]-CCK8(S) 200 pM, 150 min at 21±3°, read-out: CCKB pKi (converted). On the procedure: The compounds of the examples were tested for binding at the CCKB receptor in mouse cortical membranes by means of a radioligand binding assay. The procedure was as follows:
The whole brains from male mice (CD1 22-25 g; Charles River) were removed and placed in ice-cold buffer (pH 7.2 @ 21±3°) of the following composition (mM); 10 HEPES, 130 NaCl, 4.7 KCl, 5 MgCl2, 1 EDTA and containing 0.25 gl^−1 bacitracin. The cortex was dissected, weighed and homogenised in 40 ml ice-cold buffer using a Teflon-in-glass homogeniser. The homogenate was centrifuged at 39800 g for 20 min […], the supernatant discarded and the pellet resuspended by homogenisation in fresh buffer. The homogenate was recentrifuged (39800 g, 20 min @ 4°) and the final pellet was resuspended in HEPES buffer to give a tissue concentration of 20 mg ml^−1 (original wet weight).
The assay was terminated by rapid filtration through pre-soaked Whatman GF/B filters using a Brandell Cell Harvester. The filters were washed (3×3 ml) with ice-cold 50 mM Tris-HCl (pH 7.4 @ 4° C.) and bound radioactivity determined by counting (1 min) in a gamma-counter.
For the molecule `O=C(O)c1cccc(NC(=O)c2nc(-c3ccccc3)[nH]c2CCC2CCCCCC2)c1` [Example 38, 3-{[5-(2-Cycloheptyl-ethyl)-2-phenyl-1H-imidazole-4-carbonyl]-amino}-benzoic Acid], the Ki was 1120 nM.
`O=C(O)c1cccc(CNC(=O)c2nc(-c3ccccc3)[nH]c2CCC23CC4CC(CC(C4)C2)C3)c1` [Example 85, 3-({[5-(2-Adamantan-1-yl-ethyl)-2-phenyl-1H-imidazole-4-carbonyl]-amino}-methyl)-benzoic Acid]: the Ki was 479 nM.
As to `O=C(Nc1cc(-c2nnn[nH]2)cc(-c2nnn[nH]2)c1)c1nc(-c2ccccc2)[nH]c1CC1CCCCCC1` [Example 25, 5-Cycloheptyimethyl-2-phenyl-1H-imidazole-4-carboxylic Acid [3,5-bis-(1H-tetrazol-5-yl)-phenyl]-amide], the Ki is 69.2 nM.
Consider `Cc1ccccc1-c1nc(C(=O)Nc2cccc(CC(=O)O)c2)c(CCC23CC4CC(CC(C4)C2)C3)[nH]1` [Example 83, (3-{[5-(2-Adamantan-1-yl-ethyl)-2-o-tolyl-1H-imidazole-4-carbonyl]-amino}-phenyl)-acetic Acid], for which the Ki is 2.24 nM.
On the same count and under the same terms, the result for `O=C(O)c1cc(NC(=O)c2nc(C3CCCCC3)[nH]c2CC2CCCCCC2)cc(C(=O)O)c1` [Example 34, 5-[(5-Cycloheptylmethyl-2-cyclohexyl-1H-imidazole-4-carbonyl)-amino]-isophthalic Acid] reads 1580 nM; that for `O=C(O)c1ccc(NC(=O)c2cc(-c3ccccc3)[nH]c2CC23CC4CC(CC(C4)C2)C3)cc1` [Example 7, 4-[(2-Adamantan-1-ylmethyl-5-phenyl-1H-pyrrole-3-carbonyl)-amino]-benzoic Acid], 646 nM; that for `O=C(O)c1cccc(NC(=O)c2cc(-c3ccccc3)[nH]c2CC23CC4CC(CC(C4)C2)C3)c1` [Example 3, 3-[(2-Adamantan-1-ylmethyl-5-phenyl-1H-pyrrole-3-carbonyl)-amino]-benzoic Acid], 1450 nM.
Regarding `O=C(O)c1cccc(NC(=O)c2nc[nH]c2CCC23CC4CC(CC(C4)C2)C3)c1` [Example 77, 3-{[5-(2-Adamantan-1-yl-ethyl)-1H-imidazole-4-carbonyl]-amino}-benzoic Acid], the Ki was 10000 nM.
`O=C(O)c1cc(NC(=O)c2[nH]c(-c3ccc4[nH]ccc4c3)nc2CC2CCCCCC2)cc(C(=O)O)c1` [Example 30, 5-[(5-Cycloheptylmethyl-2-(1H-indol-5-yl)-1H-imidazole-4-carbonyl)-amino]-isophthalic Acid]: the Ki was 1070 nM.
As to `O=C(O)c1cccc(NC(=O)c2nc(C3CCCCC3)[nH]c2CCc2ccccc2)c1` [Example 88, 3-[(2-Cyclohexyl-5-phenethyl-1H-imidazole-4-carbonyl)-amino]-benzoic Acid], the Ki is 6610 nM.
As to `O=C(O)c1cc(NC(=O)c2nc(-c3ccc4ccccc4c3)[nH]c2CCC23CC4CC(CC(C4)C2)C3)cc(C(=O)O)c1` [Example 44, 5-{[5-(2-Adamantan-1-yl-ethyl)-2-naphthalene-2-yl-1H-imidazole-4-carbonyl]-amino}-isophthalic Acid], the Ki was 120 nM.
On to `O=C(Nc1cc(CO)cc(CO)c1)c1[nH]c(-c2ccc3ccccc3c2)nc1CC1CCCCCC1` [Example 22, 5-Cycloheptylmethyl-2-naphthalen-2-yl-1H-imidazole-4-carboxylic Acid (3,5-bis-hydroxymethyl-phenyl)-amide], for which the Ki is 4070 nM.

The target in a further test is T2, gastrin receptor (Rattus norvegicus, UniProt P30553).
T2 construct: The stomach was excised and flushed with ca. 1 ml of unbuffered physiological saline solution; from tissue; host or cells: isolated whole stomach of immature rats (ca. 21 days old)
T2 sequence (P30553 1-452): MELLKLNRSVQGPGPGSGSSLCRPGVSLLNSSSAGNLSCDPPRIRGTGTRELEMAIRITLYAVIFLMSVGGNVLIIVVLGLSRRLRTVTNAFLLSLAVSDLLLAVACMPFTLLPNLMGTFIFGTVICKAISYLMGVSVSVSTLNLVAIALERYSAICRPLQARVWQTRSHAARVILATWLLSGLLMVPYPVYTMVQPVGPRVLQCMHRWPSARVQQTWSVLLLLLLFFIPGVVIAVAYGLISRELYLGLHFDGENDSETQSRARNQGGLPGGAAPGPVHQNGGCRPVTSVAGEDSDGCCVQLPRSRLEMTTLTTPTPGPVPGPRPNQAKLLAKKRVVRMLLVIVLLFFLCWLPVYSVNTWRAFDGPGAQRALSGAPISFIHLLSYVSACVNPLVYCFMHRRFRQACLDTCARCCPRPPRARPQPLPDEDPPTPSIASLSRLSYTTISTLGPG
Kind of test: gastrin antagonist activity in immature rat stomach assay (pentagastrin dose-response, acid secretion). As to conditions: isolated immature rat stomach, cumulative pentagastrin dose-response curves. In a few lines:
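Isolated, lumen-perfused stomach from immature rats (33-50 g, ca. 21 days) in a 37° organ bath with 3×10^−8 M 5-methylfurmethide, gassed 95% O2/5% CO2. Compound added serosally after 120 min stabilisation; cumulative pentagastrin dose-response curves begun 60 min later, acid secretion followed by perfusate pH.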
In the case of `O=C(O)c1cccc(NC(=O)c2nc([C@@H]3CC4CC[C@@H]3C4)[nH]c2COC23CC4CC(CC(C4)C2)C3)c1` [Example 292, endo-3-{[5-(Adamantan-1-yloxymethyl)-2-((1R,2R)-bicyclo[2.2.1]hept-2-yl)-1H-imidazole-4-carbonyl]-amino}-benzoic Acid], the “Gastrin pKb” value is given as 8.57.

Staying with this test, now noted: isolated immature rat stomach, cumulative pentagastrin dose-response curves, read-out: Gastrin pKb (converted).
With `Cc1cc(C)c(-c2nc(C(=O)Nc3cccc(C(=O)O)c3)c(CCC34CC5CC(CC(C5)C3)C4)[nH]2)c(C)n1` [Example 182, 3-{[5-(2-Adamantan-1-yl-ethyl)-2-(2,4,6-trimethyl-pyridine-3-yl)-1H-imidazole-4-carbonyl]-amino}-benzoic Acid], the Kb is 51.3 nM.
The same measure, in the same setting: the result for `Cc1cc(C)c(-c2nc(C(=O)Nc3ccc(C)c(C(=O)O)c3)c(CCC34CC5CC(CC(C5)C3)C4)[nH]2)c(C)n1` [Example 183, 5-{[5-(2-Adamantan-1-yl-ethyl)-2-(2,4,6-trimethyl-pyridine-3-yl)-1H-imidazole-4-carbonyl]-amino}-2-methyl-benzoic Acid] reads 42.7 nM; that for `Cc1cc(C)c(-c2nc(COC34CC5CC(CC(C5)C3)C4)c(C(=O)Nc3cccc(C(=O)O)c3)n2O)c(C)c1` [Example 312, 3-{[5-(Adamantan-1-yloxymethyl)-2-(2,4,6-trimethyl-phenyl)-3-hydroxy-3H-imidazole-4-carbonyl]-amino}-benzoic Acid], 34.7 nM; that for `O=C(O)c1cccc(OC(=O)c2nc(C3CCCCC3)[nH]c2CCC23CC4CC(CC(C4)C2)C3)c1` [Example 282, 5-(2-Adamantan-1-yl-ethyl)-2-cyclohexyl-1H-imidazole-4-carboxylic Acid 3-carboxy-phenyl Ester], 708 nM.
For the molecule `COCC1(c2nc(C(=O)Nc3cccc(C(=O)O)c3)c(CCC34CC5CC(CC(C5)C3)C4)[nH]2)CCCCC1` [Example 203, 3-{[5-(2-Adamantan-1-yl-ethyl)-2-(1-methoxymethyl-cyclohexyl)-1H-imidazole-4-carbonyl]-amino}-benzoic Acid], the Kb is 11.7 nM.
As to `O=C(O)c1cccc(NC(=O)c2nc(C3CCCCCC3)[nH]c2COC23CC4CC(CC(C4)C2)C3)c1` [Example 228, 3-{[5-(Adamantan-1-yloxymethyl)-2-cycloheptyl-1H-imidazole-4-carbonyl]-amino}-benzoic Acid], the Kb was 0.724 nM.
Regarding `O=C(O)c1cccc(NC(=O)c2nc(C3CCCCC3)[nH]c2COCC23CC4CC(CC(C4)C2)C3)c1` [Example 309, 3-{[5-(Adamantan-1-ylmethoxymethyl)-2-cyclohexyl-1H-imidazole-4-carbonyl]-amino}-benzoic Acid], the Kb is 24.5 nM.
Regarding `Cn1c(C2CCCCC2)nc(C(=O)Nc2cccc(C(=O)O)c2)c1CCC12CC3CC(CC(C3)C1)C2` [Example 214, 3-{[5-(2-Adamantan-1-yl-ethyl)-2-cyclohexyl-1-methyl-1H-imidazole-4-carbonyl]-amino}-benzoic Acid], the Kb is 10.2 nM.
Still for that read-out and setting: the result for `Cc1cc(C)c(-c2nc(C(=O)Nc3ccc(F)c(C(=O)O)c3)c(CCC34CC5CC(CC(C5)C3)C4)[nH]2)c(C)n1` [Example 184, 5-{[5-(2-Adamantan-1-yl-ethyl)-2-(2,4,6-trimethyl-pyridine-3-yl)-1H-imidazole-4-carbonyl]-amino}-2-fluoro-benzoic Acid] reads 70.8 nM; that for `O=C(O)c1cccc(NC(=O)c2nc(C3(CO)CCCCC3)[nH]c2CCC23CC4CC(CC(C4)C2)C3)c1` [Example 204, 3-{[5-(2-Adamantan-1-yl-ethyl)-2-(1-hydroxymethyl-cyclohexyl)-1H-imidazole-4-carbonyl]-amino}-benzoic Acid], 5.75 nM; that for `CN(CC(=O)O)C(=O)c1cccc(NC(=O)c2nc(C3CCCCC3)[nH]c2CCC23CC4CC(CC(C4)C2)C3)c1` [Example 266, [(3-{[5-(2-Adamantan-1-yl-ethyl)-2-cyclohexyl-1H-imidazole-4-carbonyl]-amino}-benzoyl)-methyl-amino]-acetic Acid], 19.1 nM.
